Assay [1] can be described thus: ABTS radical scavenging activity. As to conditions: samples from BQ pulp; 6 min, 734 nm; mean ± SD, n = 3. As for the experimental part: ABTS assay was carried out using a spectrophotometer as reported. The ABTS radical cation was generated by reacting 7 mmol/L ABTS with 2.45 mmol/L potassium persulfate, and the mixture was allowed to stand in the dark at room temperature for 16 h before use. Before analysis, the ABTS solution was diluted with ethanol to an absorbance of 0.70 ± 0.05 at a wavelength of 734 nm. The absorbance at 734 nm was recorded for 6 min after mixing of 0.1 mL of the tested samples dissolved in ethanol with 3.9 mL of ABTS solution. The radical scavenging activity was calculated as the Equation (1) above.

Assay [2] can be described thus: DPPH radical scavenging activity. The note with it: samples from BQ pulp; 1 h reaction, 515 nm; mean ± SD, n = 3. As to the method:
DPPH radical scavenging activity was measured according to Brand-Williams, Cuvelier, and Berset with modifications. The reaction for scavenging DPPH radical was carried out by adding 2 μL sample to 198 μL 25 μg/mL DPPH solution at room temperature. Absorbance at 515 nm before (A0) and after (A1) the reaction (1 h) was recorded using a micro-plate reader (BioTech, Synergy H1, Winooski, VT, USA). The radical scavenging activity was calculated as: Scavenging rate (%) = (A0 − A1)/A0 × 100 (1)

`OC[C@H]1O[C@@H](Oc2cc3c(O)cc(O)cc3[o+]c2-c2ccc(O)c(O)c2)[C@H](O)[C@@H](O)[C@@H]1O` [C3G, cyanidin-3-O-glucoside]: in assay [1], the “IC50 of ABTS radical scavenging activity” value was determined as 4.19 ± 0.16 µg/mL. The “IC50 of DPPH scavenging activity” value in assay [2] stood at 3.22 µg/mL.

Consider `C[C@@H]1O[C@@H](Oc2c(-c3cc(O)c(O)c(O)c3)oc3cc(O)cc(O)c3c2=O)[C@H](O)[C@H](O)[C@H]1O` [M3R, myricetin-3-O-rhamnoside], for which the “IC50 of ABTS radical scavenging activity” value in assay [1] is 3.24 ± 0.02 µg/mL. The “IC50 of DPPH scavenging activity” value in assay [2] is 2.81 µg/mL.

Take `O=c1c(O[C@@H]2O[C@H](CO)[C@H](O)[C@H](O)[C@H]2O)c(-c2ccc(O)c(O)c2)oc2cc(O)cc(O)c12` [Q3Gal, quercetin-3-O-galactoside]: the “IC50 of ABTS radical scavenging activity” value in assay [1] amounted to 2.09 ± 0.01 µg/mL. In addition, the “IC50 of DPPH scavenging activity” value in assay [2] was 2.43 µg/mL.

Consider quercetin-3-O-rhamnoside [Q3R], for which the “IC50 of ABTS radical scavenging activity” value in assay [1] was found to be 2.28 ± 0.05 µg/mL. Moreover, the “IC50 of DPPH scavenging activity” value in assay [2] worked out at 2.55 µg/mL.

These data come from PMC6273079, “Purification of Flavonoids from Chinese Bayberry (Morella rubra Sieb. et Zucc.) Fruit Extracts and α-Glucosidase Inhibitory Activities of Different Fractionations” (Molecules, 2016).
